Reference: paper PMC8915595, “Revisiting the application of Immobilized Artificial Membrane (IAM) chromatography to estimate in vivo distribution properties of drug discovery compounds based on the model of marketed drugs” (ADMET & DMPK, 2020)

What was measured:
[1] = biological target: T1, human serum albumin (HSA) (Homo sapiens, UniProt P02768); conditions: cited from earlier work
[2] = biological target: T1, human serum albumin (HSA); test: Protein binding on chemically bonded HSA column (Chiralpak-HSA); conditions: remeasured in this study, pH 7.4
Method: Mobile phase A was 50 mM ammonium acetate adjusted to pH 7.4 and mobile phase B was 2-propanol. The flow rate was 1.5 mL/min and the run time was 6 min. The 2-propanol gradient was applied from 0 to 35% from 0 to 3.00 min and kept at 35% until 4.00 min.

[3] = IAM chromatography on new IAM.PC.DD2 columns (gradient HPLC, CHI (IAM)); assay type: physicochemical; parameters: key to CHI (IAM) “new” / P20511-014-3 CHI (IAM): CHI (IAM) from retention times calibrated to predefined CHI standards; conditions: for P20511-014-3 CHI (IAM): new IAM.PC.DD2 column batch P20511-014-3, pH 7.4; for R20511-014-3 CHI (IAM): new IAM.PC.DD2 column batch R20511-014-3, pH 7.4; for CHI (IAM) deviation between reference and new IAM.PC.DD2 columns / CHI (IAM) “new”: system suitability test compounds; for CHI (IAM) “new”: new IAM.PC.DD2 columns, pH 7.4
Method: The IAM binding was measured using IAM.PC.DD2 HPLC columns (Regis Technologies, Inc., IL, USA) with dimensions of 100 x 4.6 mm, particle size 10 μm with 300 Å pore size.
Two batches of IAM.PC.DD2 columns were studied (R20511-014-3 and P20511-014-3) that had been prepared using the new batches of silica support.
The retention times were standardized using the IAM calibration mixture, containing octanophenone, heptanophenone, hexanophenone, valerophenone, butyrophenone, propiophenone, acetophenone, acetanilide and paracetamol. The retention times of the compounds were plotted against the isocratically determined and predefined CHI (IAM) values listed in Table 1. The slope and intercept of the obtained straight line was used to calculate the CHI IAM values of new compounds.

[4] = reference CHI (IAM), old columns; cited from earlier work
[5] = human

T1 sequence (P02768 25-609): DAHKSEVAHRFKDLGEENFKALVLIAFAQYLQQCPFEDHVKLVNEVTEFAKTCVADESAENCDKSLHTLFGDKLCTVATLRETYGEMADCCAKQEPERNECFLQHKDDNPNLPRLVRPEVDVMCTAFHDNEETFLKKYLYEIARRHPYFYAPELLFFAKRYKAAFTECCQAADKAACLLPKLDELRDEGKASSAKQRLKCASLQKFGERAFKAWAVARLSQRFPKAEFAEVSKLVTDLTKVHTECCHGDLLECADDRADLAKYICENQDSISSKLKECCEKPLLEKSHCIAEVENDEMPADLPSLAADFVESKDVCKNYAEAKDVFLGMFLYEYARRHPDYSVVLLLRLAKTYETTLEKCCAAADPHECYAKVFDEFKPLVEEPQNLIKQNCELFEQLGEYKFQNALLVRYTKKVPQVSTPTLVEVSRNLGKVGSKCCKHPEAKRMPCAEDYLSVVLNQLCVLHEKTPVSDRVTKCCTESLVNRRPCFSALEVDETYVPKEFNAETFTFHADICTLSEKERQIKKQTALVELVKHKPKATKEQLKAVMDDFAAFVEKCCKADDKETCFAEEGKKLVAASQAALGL

C=CCOc1ccc(CC(=O)O)cc1Cl [Alclofenac]
log K HSA from ref [13] [1]: 5.11
log K HSA [2]: 5.40
P20511-014-3 CHI (IAM) [3]: 21.63
R20511-014-3 CHI (IAM) [3]: 20.47
CHI (IAM) from ref [13] [4]: 17.80
reference log Vdss [5]: -1.1

NC(=O)N1c2ccccc2C=Cc2ccccc21 [Carbamazepine]
log K HSA from ref [13] [1]: 1.99
log K HSA [2]: 1.81
P20511-014-3 CHI (IAM) [3]: 27.07
R20511-014-3 CHI (IAM) [3]: 27.18
CHI (IAM) deviation between reference and new IAM.PC.DD2 columns [3]: very similar
CHI (IAM) “new” [3]: 27.0
CHI (IAM) from ref [13] [4]: 26.50
reference log Vdss [5]: -0.09

CC1=NS(=O)(=O)c2cc(Cl)ccc2N1 [Diazoxide]
log K HSA from ref [13] [1]: 5.42
log K HSA [2]: 5.58
P20511-014-3 CHI (IAM) [3]: 23.44
R20511-014-3 CHI (IAM) [3]: 23.39
CHI (IAM) from ref [13] [4]: 24.70
reference log Vdss [5]: -0.16

C#C[C@]1(O)CC[C@H]2[C@@H]3CCc4cc(O)ccc4[C@H]3CC[C@@]21C [Ethinyl estradiol]
log K HSA from ref [13] [1]: 0.46
log K HSA [2]: 0.50
P20511-014-3 CHI (IAM) [3]: 45.23
R20511-014-3 CHI (IAM) [3]: 45.30
CHI (IAM) from ref [13] [4]: 46.80
reference log Vdss [5]: 0.39

NC(N)=Nc1nc(CSCCC(N)=NS(N)(=O)=O)cs1 [Famotidine]
log K HSA from ref [13] [1]: 1.39
log K HSA [2]: 3.43
P20511-014-3 CHI (IAM) [3]: 16.08
R20511-014-3 CHI (IAM) [3]: 16.82
CHI (IAM) from ref [13] [4]: 15.70
reference log Vdss [5]: -0.06

CC(C(=O)O)c1cccc(Oc2ccccc2)c1 (stereo not drawn) [Fenoprofen]
log K HSA from ref [13] [1]: 1.58
log K HSA [2]: 2.32
P20511-014-3 CHI (IAM) [3]: 28.26
R20511-014-3 CHI (IAM) [3]: 27.17
CHI (IAM) from ref [13] [4]: 17.20
reference log Vdss [5]: -1.27

CC(C)(C)NC(=O)[C@H]1CC[C@H]2[C@@H]3CC[C@H]4NC(=O)C=C[C@]4(C)[C@H]3CC[C@]12C [Finasteride]
log K HSA from ref [13] [1]: 3.62
log K HSA [2]: 3.55
P20511-014-3 CHI (IAM) [3]: 37.17
R20511-014-3 CHI (IAM) [3]: 37.15
reference log Vdss [5]: 0.3

Cc1onc(-c2c(F)cccc2Cl)c1C(=O)N[C@@H]1C(=O)N2[C@@H]1SC(C)(C)[C@@H]2C(=O)O [Floxacillin]
log K HSA from ref [13] [1]: 0.56
log K HSA [2]: 0.65
P20511-014-3 CHI (IAM) [3]: 24.59
R20511-014-3 CHI (IAM) [3]: 23.76
CHI (IAM) from ref [13] [4]: 23.40
reference log Vdss [5]: -0.56

CC(C(=O)O)c1ccc(-c2ccccc2)c(F)c1 (stereo not drawn) [Flurbiprofen]
log K HSA from ref [13] [1]: 1.26
log K HSA [2]: 4.01
P20511-014-3 CHI (IAM) [3]: 30.89
R20511-014-3 CHI (IAM) [3]: 30.23
CHI (IAM) from ref [13] [4]: 26.80
reference log Vdss [5]: -1.56

Cc1ccc(C)c(OCCCC(C)(C)C(=O)O)c1 [Gemfibrozil]
log K HSA from ref [13] [1]: 3.32
log K HSA [2]: 4.05
P20511-014-3 CHI (IAM) [3]: 34.53
R20511-014-3 CHI (IAM) [3]: 33.70
CHI (IAM) from ref [13] [4]: 32.90
reference log Vdss [5]: -1.34

COC1=CC(=O)C[C@@H](C)[C@]12Oc1c(Cl)c(OC)cc(OC)c1C2=O [Griseofulvin]
log K HSA from ref [13] [1]: 0.77
log K HSA [2]: 0.80
P20511-014-3 CHI (IAM) [3]: 30.98
R20511-014-3 CHI (IAM) [3]: 31.06
CHI (IAM) from ref [13] [4]: 33.10
reference log Vdss [5]: 0.12

NS(=O)(=O)c1cc2c(cc1Cl)NCNS2(=O)=O [Hydrochlorothiazide]
log K HSA from ref [13] [1]: 0.92
log K HSA [2]: 1.05
P20511-014-3 CHI (IAM) [3]: 13.08
R20511-014-3 CHI (IAM) [3]: 13.04
CHI (IAM) from ref [13] [4]: 15.90
reference log Vdss [5]: -0.13

COC(=O)C1=C(C)NC(C)=C(C(=O)OC(C)C)C1c1cccc2nonc12 (stereo not drawn) [Isradipine]
log K HSA from ref [13] [1]: 2.9
log K HSA [2]: 3.30
P20511-014-3 CHI (IAM) [3]: 39.16
R20511-014-3 CHI (IAM) [3]: 39.11
CHI (IAM) from ref [13] [4]: 40.00
reference log Vdss [5]: 0.13

C[C@H]1C[C@@H]2[C@H]([C@@H](O)C[C@@]3(C)[C@H]2CC[C@]3(O)C(=O)CO)[C@@]2(C)C=CC(=O)C=C12 [Methylprednisolone]
log K HSA from ref [13] [1]: 0.76
log K HSA [2]: 0.28
P20511-014-3 CHI (IAM) [3]: 30.77
R20511-014-3 CHI (IAM) [3]: 30.91
CHI (IAM) from ref [13] [4]: 32.10
reference log Vdss [5]: 0.16

Cc1ncc([N+](=O)[O-])n1CCO [Metronidazole]
log K HSA from ref [13] [1]: 0.66
log K HSA [2]: 0.72
P20511-014-3 CHI (IAM) [3]: -3.24
R20511-014-3 CHI (IAM) [3]: -2.71
CHI (IAM) from ref [13] [4]: -3.30
reference log Vdss [5]: -0.25

Nc1cc(N2CCCCC2)nc(N)[n+]1[O-] [Minoxidil]
log K HSA from ref [13] [1]: 3.16
log K HSA [2]: 3.41
P20511-014-3 CHI (IAM) [3]: 16.08
R20511-014-3 CHI (IAM) [3]: 15.93
CHI (IAM) from ref [13] [4]: 19.00
reference log Vdss [5]: -0.04

CC(C)(C)NCC(O)COc1cccc2c1CC(O)C(O)C2 (stereo not drawn) [Nadolol]
log K HSA from ref [13] [1]: 2.93
log K HSA [2]: 3.55
P20511-014-3 CHI (IAM) [3]: 19.23
R20511-014-3 CHI (IAM) [3]: 19.89
CHI (IAM) from ref [13] [4]: 20.20
reference log Vdss [5]: -0.33

COC(=O)C1=C(C)NC(C)=C(C(=O)OCCN(C)Cc2ccccc2)C1c1cccc([N+](=O)[O-])c1 (stereo not drawn) [Nicardipine]
log K HSA from ref [13] [1]: 1.41
log K HSA [2]: 1.95
P20511-014-3 CHI (IAM) [3]: 43.73
R20511-014-3 CHI (IAM) [3]: 43.82
CHI (IAM) deviation between reference and new IAM.PC.DD2 columns [3]: very similar
CHI (IAM) “new” [3]: 45.0
CHI (IAM) from ref [13] [4]: 45.90
reference log Vdss [5]: 0.47

CCOC(=O)C1=C(C)NC(C)=C(C(=O)OC)C1c1cccc([N+](=O)[O-])c1 (stereo not drawn) [Nitrendipine]
log K HSA from ref [13] [1]: 2.35
log K HSA [2]: 2.70
P20511-014-3 CHI (IAM) [3]: 39.19
R20511-014-3 CHI (IAM) [3]: 39.06
CHI (IAM) from ref [13] [4]: 40.50
reference log Vdss [5]: 0.16

CC(=O)CCCCn1c(=O)c2c(ncn2C)n(C)c1=O [Pentoxifylline]
log K HSA from ref [13] [1]: 3.27
log K HSA [2]: 4.03
P20511-014-3 CHI (IAM) [3]: 13.87
R20511-014-3 CHI (IAM) [3]: 14.04
CHI (IAM) from ref [13] [4]: 12.00
reference log Vdss [5]: -0.1

O=C1NC(=O)C(c2ccccc2)(c2ccccc2)N1 [Phenytoin]
log K HSA from ref [13] [1]: 0.54
log K HSA [2]: 0.63
P20511-014-3 CHI (IAM) [3]: 30.20
R20511-014-3 CHI (IAM) [3]: 30.18
CHI (IAM) from ref [13] [4]: 31.60
reference log Vdss [5]: 0.03

C[C@]12C=CC(=O)C=C1CC[C@@H]1[C@@H]2C(=O)C[C@@]2(C)[C@H]1CC[C@]2(O)C(=O)CO [Prednisone]
log K HSA from ref [13] [1]: 0.62
log K HSA [2]: 0.42
P20511-014-3 CHI (IAM) [3]: 25.13
R20511-014-3 CHI (IAM) [3]: 25.25
reference log Vdss [5]: 0.05

CC(O)Cn1cnc2c1c(=O)n(C)c(=O)n2C (stereo not drawn) [Proxyphylline]
log K HSA from ref [13] [1]: 1.97
log K HSA [2]: 3.02
P20511-014-3 CHI (IAM) [3]: 10.89
R20511-014-3 CHI (IAM) [3]: 10.05
reference log Vdss [5]: -0.85

COc1ccc(NS(=O)(=O)c2ccc(N)cc2)nn1 [Sulfamethoxypyridazine]
log K HSA from ref [13] [1]: 2.33
log K HSA [2]: 4.27
P20511-014-3 CHI (IAM) [3]: 11.16
R20511-014-3 CHI (IAM) [3]: 11.11
reference log Vdss [5]: -0.59
